Measured values: US5936063A, “Antimicrobial peptide isolated from Bufo bufo gargarizans” (priority 1998, dated 1999)

Columns and labels:
[1] = tested on: Staphylococcus aureus; experiment: Minimal inhibitory concentration test; type: cell-based; conditions: Gram-positive bacteria
Protocol: (§1) Antimicrobial activity of the peptide of the invention was measured by its minimal inhibitory concentration against various test microorganisms (see: Table 1).
(§2) On the other hand, comparison of the antimicrobial activity of the peptide with a commercially available Magainin 2 (Sigma, USA) was followed and summarized in Table 2 below.

[2] = tested on: Salmonella typhimurium; experiment: Minimal inhibitory concentration test; type: cell-based; conditions: Gram-negative bacteria
Protocol: as §1, §2

Magainin 2
Minimal inhibitory concentration [1]: 13 mg/mL | Minimal inhibitory concentration [2]: 25 mg/mL
